Assay results from article PMC5666843, “Seco-B-Ring Steroidal Dienynes with Aromatic D Ring: Design, Synthesis and Biological Evaluation” (International Journal of Molecular Sciences, 2017).

Molecular target: T1, recombinant human VDR (hVDR, vitamin D receptor) (Homo sapiens, UniProt P11473)
T1 sequence (P11473 1-427): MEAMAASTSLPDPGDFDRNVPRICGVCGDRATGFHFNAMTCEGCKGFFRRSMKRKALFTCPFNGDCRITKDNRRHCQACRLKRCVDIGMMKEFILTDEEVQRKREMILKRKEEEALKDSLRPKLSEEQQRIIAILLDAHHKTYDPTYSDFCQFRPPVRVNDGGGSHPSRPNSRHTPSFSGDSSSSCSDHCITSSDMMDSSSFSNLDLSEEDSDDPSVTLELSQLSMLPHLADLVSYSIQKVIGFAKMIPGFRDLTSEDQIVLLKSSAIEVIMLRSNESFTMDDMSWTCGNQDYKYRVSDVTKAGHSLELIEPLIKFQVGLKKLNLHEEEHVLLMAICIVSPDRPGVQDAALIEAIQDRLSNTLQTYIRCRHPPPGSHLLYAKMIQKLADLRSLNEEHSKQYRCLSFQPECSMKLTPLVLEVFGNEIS
Assay: fluorescence polarization competition assay (PolarScreen)
Type: binding
Conditions: read-out: 6
Excerpt: fluorescence polarization competition assay (PolarScreen) on recombinant human VDR (hVDR, vitamin D receptor)

## C=C1[C@H](O)C(C)=C(C#CC2=CCCc3c2cccc3[C@H](C)CCCC(C)(C)O)C[C@H]1O [compound 6, (1R,3S,1′′R)-5-[5′-(5′′-Hydroxy-1′′,5′′-dimethylhexyl)-3′,4′-dihydro-naphthalen-1′-ylethynyl]-4-methyl-2-methylene-cyclohex-4-ene-1,3-diol]
  IC50: 28 nM
